# Data published in patent US11155664B2, “Polymeric nanoparticles useful in theranostics” (THE GOVERNING COUNCIL OF THE UNIVERSITY OF TORONTO, priority 2012, dated 2021).
# How the values were obtained:
# [1] = mouse, in vivo
# Text: The data are presented as mean±standard deviation of three independent runs.
# T1-weighted images provide only a qualitative reflection of contrast agent distribution, primarily because of the sensitivity profiles of the RF transmit and receiver coils. In contrast, R1 maps provide a better quantitative measure of the contrast agent distribution in the whole body.
# The temporal behaviour of the whole-body distribution of contrast agents was quantified by constructing R1 maps at multiple time-points following injection without moving the animal (FIG. 27A). Organ-specific concentration profiles were then quantified directly from R1 measurements in manually segmented regions-of-interest according to Equation 1 (described previously), (FIG. 27B,C).
# The R1 of the left ventricular (LV) blood provides a useful indicator of vascular contrast agent enhancement in whole-body images.
# MDA-MB435/LCC6/WT cells = assay: MTT cell viability, wild-type cells; type: cell-based, human
# Experimental: Cells with no treatment and incubated with blank nanoparticles were used as control for free drug and drug loaded nanoparticle respectively. Cell viability is expressed as the percent of control for each treatment group. Data points represent the mean±standard deviation of the number of trials indicated for each experiment.
# The cells were treated with increasing concentrations of doxorubicin or doxorubicin-loaded nanoparticles for 24 hrs and 48 hrs, and the cell viability was determined using MTT assay.
structure (smiles),measurement,setting,value
"CNC(=O)CN(CCN(CCN(CC(=O)[O-])CC(=O)NC)CC(=O)[O-])CC(=O)[O-].[Gd+3] [Omniscan®, diethylenetriamine pentaacetic acid bismethylamide gadolinium]",LV blood R1,[1],~0.7 s⁻¹
same,LV blood ΔR1,[1],~0.1 s⁻¹
"COc1cccc2c1C(=O)c1c(O)c3c(c(O)c1C2=O)C[C@@](O)(C(=O)CO)C[C@@H]3O[C@H]1C[C@H](N)[C@H](O)[C@H](C)O1 [free Dox, doxorubicin]",IC50,MDA-MB435/LCC6/WT cells; 24 hrs treatment,0.34 mg/L
same,IC50,MDA-MB435/LCC6/WT cells; 48 hrs treatment,0.07 mg/L
